Results as given in PubChem BioAssay AID504934 (The Scripps Research Institute Molecular Screening Center, 2011).
Active and inactive are the calls of the source. The rule behind the calls is not given here.

How the values were obtained:
Experiment in all cases: PubChem AID 504934
AR = conditions: nuclear receptor panel Gal4 luciferase reporter, at 10 µM
RORb = conditions: nuclear receptor panel Gal4 luciferase reporter, at 10 µM
[1] = biological target: Nuclear receptor ROR-alpha (Homo sapiens) (UniProt P35398); conditions: nuclear receptor panel Gal4 luciferase reporter, RORa, at 10 µM
Chain of Nuclear receptor ROR-alpha (Homo sapiens) (P35398 whole entry, looked up, the tested form may be a part): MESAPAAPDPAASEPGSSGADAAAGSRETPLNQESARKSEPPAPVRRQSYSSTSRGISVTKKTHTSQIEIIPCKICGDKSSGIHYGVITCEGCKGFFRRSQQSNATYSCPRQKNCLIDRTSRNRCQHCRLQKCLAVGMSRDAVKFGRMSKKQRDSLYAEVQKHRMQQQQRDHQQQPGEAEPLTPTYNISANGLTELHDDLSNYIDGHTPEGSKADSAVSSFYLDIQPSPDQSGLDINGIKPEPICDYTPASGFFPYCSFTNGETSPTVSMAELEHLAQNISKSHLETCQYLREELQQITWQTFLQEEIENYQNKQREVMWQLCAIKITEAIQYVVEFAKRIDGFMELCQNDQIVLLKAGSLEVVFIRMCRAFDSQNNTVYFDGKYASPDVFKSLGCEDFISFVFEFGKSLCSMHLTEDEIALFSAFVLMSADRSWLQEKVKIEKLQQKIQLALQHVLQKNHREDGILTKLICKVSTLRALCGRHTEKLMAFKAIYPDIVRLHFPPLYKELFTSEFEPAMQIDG

[2] = biological target: Nuclear receptor subfamily 1 group I member 2 (Homo sapiens) (UniProt O75469); conditions: nuclear receptor panel Gal4 luciferase reporter, PXR, at 10 µM
Chain of Nuclear receptor subfamily 1 group I member 2 (Homo sapiens) (O75469 whole entry, looked up, the tested form may be a part): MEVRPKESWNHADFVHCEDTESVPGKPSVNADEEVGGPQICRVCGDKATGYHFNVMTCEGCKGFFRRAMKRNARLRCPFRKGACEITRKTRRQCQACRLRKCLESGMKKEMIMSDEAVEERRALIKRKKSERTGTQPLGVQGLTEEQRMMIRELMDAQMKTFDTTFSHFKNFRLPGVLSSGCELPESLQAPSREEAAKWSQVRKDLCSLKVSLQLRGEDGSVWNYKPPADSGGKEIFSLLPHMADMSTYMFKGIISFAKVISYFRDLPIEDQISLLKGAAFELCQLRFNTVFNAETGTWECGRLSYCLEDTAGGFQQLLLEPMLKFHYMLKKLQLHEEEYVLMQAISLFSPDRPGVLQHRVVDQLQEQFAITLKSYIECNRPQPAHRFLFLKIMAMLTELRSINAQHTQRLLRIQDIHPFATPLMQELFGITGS

fold change (AR): 0.91 (inactive)
fold change (RORb): 0.82 (inactive)
fold change [1]: 1 (inactive)
fold change [2]: 1.26
Structure (SMILES): O=c1cc(N2CCN(c3cccc(Cl)c3)CC2)[nH]c(=O)n1C1CCCCC1
